Source: ChEMBL document CHEMBL1153356, “Inhibition of NF-kB and metalloproteinase-9 expression and secretion by parthenolide derivatives” (Bioorg Med Chem Lett, 2009)
Active and inactive are the calls of the source. No cut-off for these calls is given here.

Assays:
THP-1 [1] = test: Inhibition of MMP9 secretion in PMA-stimulated human THP1 cells at 20 uM; format: functional, cell-based
HEK293 [2] = test: Cytotoxicity against HEK293 cells at 20 uM by MTT assay; format: cell-based; details: human, hek293, 20 µM
[3] = Inhibition of NF-kappaB-mediated transcriptional activity transfected in PMA-stimulated HEK293 cells after 24 hrs by luciferase reporter gene assay; format: cell-based; details: HEK293, 24 h
HEK293 [4] = test: Inhibition of MMP9 gene transcription in PMA-stimulated HEK293 cells after 24 hrs by luciferase reporter gene assay; format: functional, cell-based; details: Homo sapiens, HEK293, 24 h
THP-1 [5] = test: Cytotoxicity against human THP1 cells at 20 uM by MTT assay; format: functional, cell-based

Row | Structure (SMILES) | Activity (THP-1 [1]) | Activity (HEK293 [2]) | IC50 [3] [µM] | IC50 (HEK293 [4]) [µM] | Activity (THP-1 [5])
1 | C=C1C(=O)O[C@H]2[C@@H]3[C@@H](CC[C@@]3(C)O)C(=C)CC[C@@H]12 | Active | Non-toxic | 8.8 | 6.6 | Not toxic
2 | C=C1C(=O)O[C@H]2[C@H]1CC/C(C)=C\CC[C@@]1(C)O[C@@H]21 | Active | Non-toxic | 7.4 | 8.5 | Not toxic
3 | C=C1C(=O)O[C@@H]2C3O[C@]3(C)CC/C=C(\C)CC[C@@H]12 (stereo partly drawn) | Active | Non-toxic | 9.76 | 6.6 | Not toxic
4 | C=C1C(=O)O[C@@H]2[C@@H](O)[C@]3(C)CC[C@H]3[C@](C)(O)CC[C@@H]12 | – | Non-toxic | 2.8 | 3.8 | Not toxic
5 | C=C1C(=O)O[C@H]2[C@@H]3[C@@H](CC[C@@]3(C)O)[C@](C)(OC)CC[C@@H]12 | Active | Non-toxic | 6 | 8.6 | Not toxic
6 | C=C1C(=O)O[C@@H]2[C@@H](O)[C@]3(C)CC[C@H]3[C@](C)(OC)CC[C@@H]12 | – | Non-toxic | 2.04 | 3.2 | Not toxic
